Data on 19 compounds can be found in publication PMC7170309, “Imidazopyridine-fused [1,3]diazepinones: modulations of positions 2 to 4 and their impacts on the anti-melanoma activity” (Journal of Enzyme Inhibition and Medicinal Chemistry, 2020).

The test system of one data set is A375 melanoma cells. Description: Neutral red uptake (NRU) viability assay, A375. The class given is cell-based, human. The following applies: for IC50: Homo sapiens, A-375, 72 h, mean ± SD of three experiments; for cytotoxic activity on A375 (in words): up to 40 µM. How it is done:
(§1) Melanoma human cancer cell line (A375 and MDA-MB-435) were obtained from ATCC. The NIH-3T3 cell line was generously gifted by the ANSM (French National Agency for Medicines and Health Products Safety, Vendargues, France). Cells were cultured in Dulbecco’s Modified Eagle Medium (DMEM, Sigma Aldrich) supplemented with 10% heat-inactivated foetal calf serum (FCS, Gibco), 2 mM glutamax (Gibco), 100 IU/mL penicillin G sodium (Sigma Aldrich), 100 lU/mL streptomycin sulphate (Sigma Aldrich). The cells were allowed to grow at 37 °C in a fully humidified atmosphere containing 5% CO2.
(§2) A viability assay was used to evaluate the cytotoxic activity on A375 and MDA-MB-435 melanoma cells as previously described. According to OCDE/ICCVAM guidance n°129, NRU assay was also used to evaluate the toxicity on the non-cancerous NIH-3T3 cells. Cells were seeded at a final concentration of 2000 cells/well (A375), 3000 cells/well (NIH-3T3) or 7500 cells/well (MDA-MB-435) in 96-well microtiter plates for 24 h. Then, cells were exposed to two negative controls (1% DMSO in culture medium (vehicle) and culture medium alone), or to different compounds freshly dissolved in DMSO, in a range of concentration from 0.01 to 40 µM (six wells per concentration). After 72 h of incubation, cells were stained with new medium containing 50 µg/mL of neutral red (3-amino-7-dimethylamino-2-methylphenazine hydrochloride, Sigma Aldrich) at 37 °C for 2 h. The neutral red medium solution was then removed and the wells were washed with PBS. Finally, 100 µL of solution containing ethanol, acetic acid and water (50/1/49 v/v/v respectively) were added into the wells and the absorbance was measured at 540 nm using the microplate reader 352 Multiscan MS (Labsystems). Cell survival rates were normalised to the absorbance values of untreated control cells. IC50 was obtained using a logistic regression model on Graphpad Prism 5.0 software. Results are given as the mean ± standard deviation (SD) of three independent experiments. Statistical analysis was performed using the Student’s t-test.

The test system of data set [1] is MDA-MB-435 melanoma cells. The data set is described as follows: Neutral red uptake (NRU) viability assay, MDA-MB-435. It counts as cell-based, human. The following applies: for IC50: Homo sapiens, MDA-MB-435, 72 h, mean ± SD of three experiments; for IC50 / cytotoxic activity on MDA-MB-435 (in words): NRU assay; for cytotoxic activity on MDA-MB-435 (in words): up to 40 µM; for times less active on MDA-MB-435 than on A375 cells: ratio of NRU IC50 values. The method, then:
as §1, §2

In data set [2] the test system is NIH-3T3 non-cancerous cells. The data set is described as follows: Neutral red uptake (NRU) toxicity assay, NIH-3T3. The following applies: non-cancerous mouse fibroblasts. The class given is cell-based. The method, then: as §1, §2
Then, all active compounds on the two melanoma cell lines (IC50 < 40 µM) were assessed on the NIH-3T3 mouse fibroblast cell line, in order to check the toxicity of our compounds on non-cancerous cells. […] As a possible modification of the mechanism of action was hypothesised for these two derivatives (see above), this phenomenon could probably be also correlated with the cytotoxicity observed on the NIH-3T3 cell line.

In data set [3] the test system is MDA-MB-435 melanoma cells. The arrangement: method as in PMID 27871038. The following applies: previously described naphthyl analogues; read-out: IC50 on MDA-MB-435 cell line; cited from earlier work.
Data set [4] is described as follows: Calculated physicochemical parameters (molsoft cheminformatic tool). The following applies: predicted. How it is done: Data set of physicochemical properties (cLogP, TPSA and molecular volume, Table 2) were calculated using the online available molsoft cheminformatic tool[23]. IC50 values of the compounds included in the test are presented in Table 1 for the correlations between IC50 and physicochemical properties of compounds modified in position 2 (Figure 2), and in Table S1 (SI) for the correlations between in vitro anti-cancer activity of JMV5038, compound 5 and […] on the NCI cell line panel (Figure 4). Pearson’s correlation coefficient r and level of significant p values were calculated using Origin Pro 2019.

Read-outs that look alike come from different tables or passages of the source.

As a reminder, the melting point is the temperature, or range, at which the solid turns liquid. Compound `C[C@@H]1NC(c2ccc(C#C[Si](C)(C)C)cc2)=Nc2nc3ccccn3c2C1=O` registered a melting point of 115 to 116 °C.

In turn, `C[C@@H]1NC(c2cn(C(=O)OC(C)(C)C)c3ccccc23)=Nc2nc3ccccn3c2C1=O` [Compound 9, (4S)-4-methyl-2-(1-boc-indol-3-yl)-3,4-dihydro-5H-pyrido[1’,2’:1,2]imidazo[4,5-d][1,3]diazepin-5-one] registered a melting point of 155 to 157 °C.

A word on the IC50: it is the concentration that inhibits the measured activity by half. In the case of `CCCC[C@@H]1NC(c2ccc(Br)cc2)=Nc2nc3ccccn3c2C1=O` [Compound 13, (4S)-4-butyl-(4-bromophenyl)-3,4-dihydro-5H-pyrido[1’,2’:1,2]imidazo[4,5-d][1,3]diazepin-5-one], the IC50 with A375 melanoma cells was 15.3 ± 1.29 µM; in data set [1], 30.83 ± 0.09 µM; in data set [2] (Mus musculus, NIH3T3, 72 h), greater than 40 µM.

Compound `C[C@@H]1NC(c2c[nH]c3ccccc23)=Nc2nc3ccccn3c2C1=O` [9′, (4S)-4-methyl-2-indol-3-yl-3,4-dihydro-5H-pyrido[1’,2’:1,2]imidazo[4,5-d][1,3]diazepin-5-one] yielded a melting point of 164.5 to 165.5 °C. Besides, in the data set with A375 melanoma cells, the half-maximal inhibitory concentration (IC50) was greater than 40 µM and the “cytotoxic activity on A375 (in words)” value is “totally inactive”. In data set [1], the IC50 is greater than 40 µM and the “cytotoxic activity on MDA-MB-435 (in words)” value is “totally inactive”.

In the case of `C#CC[C@@H]1NC(c2ccc(Br)cc2)=Nc2nc3ccccn3c2C1=O` [Compound 14, (4S)-4-propargyl-2-(4-bromophenyl)-3,4-dihydro-5H-pyrido[1’,2’:1,2]imidazo[4,5-d][1,3]diazepin-5-one], the figures for the IC50 (with A375 melanoma cells; in data set [1]) were greater than 40 µM and greater than 30 µM, respectively.

Consider `C[C@@H]1NC(c2ccc3ncccc3c2)=Nc2nc3ccccn3c2C1=O` [Compound 10, (4S)-4-methyl-2-quinolin-6-yl-3,4-dihydro-5H-pyrido[1’,2’:1,2]imidazo[4,5-d][1,3]diazepin-5-one], for which the melting point lay within 165 to 166 °C. Also, the midpoint of inhibition with A375 melanoma cells, the IC50, lay at 9.76 ± 0.95 µM. Moreover, in data set [1], it took 35.49 ± 0.21 µM to reach half-maximal inhibition (IC50) and the “times less active on MDA-MB-435 than on A375 cells” value (“times less active” for short) was “around 3”. The IC50 in data set [2] (Mus musculus, NIH3T3, 72 h) was greater than 40 µM.

`C[C@@H]1NC(c2coc3ccccc23)=Nc2nc3ccccn3c2C1=O` [Compound 7, (4S)-4-methyl-2-benzofuran-3-yl-3,4-dihydro-5H-pyrido[1’,2’:1,2]imidazo[4,5-d][1,3]diazepin-5-one] returned a melting point of 164 to 165 °C. This compound showed an IC50 in the data set with A375 melanoma cells of 8.47 ± 0.21 µM. Also, in data set [1], the midpoint of inhibition, the IC50, lay at 25.92 ± 0.17 µM and the “times less active” value is on record as “around 3”. This compound returned an IC50 in data set [2] (Mus musculus, NIH3T3, 72 h) greater than 40 µM.

As for `O=C1c2c(nc3ccccn23)N=C(c2ccc(Br)cc2)N2CCC[C@@H]12` [Compound 20, 7–(4-bromophenyl)-9,10,11,11a-tetrahydro-12H-pyrido[2’,1’:2,3]imidazo[4,5-f]pyrrolo[1,2-c][1,3]diazepin-12-one], the half-inhibitory concentration (IC50) (with A375 melanoma cells; in data set [1]) was greater than 40 µM in each case.

Take `[N-]=[N+]=NCCCC[C@H]1NC(c2ccc(Br)cc2)=Nc2nc3ccccn3c2C1=O` [Compound 17, (4R)-4-(4-azidobutyl)-2-(4-bromophenyl)-3,4-dihydro-5H-pyrido[1’,2’:1,2]imidazo[4,5-d][1,3]diazepin-5-one]: the IC50 in the data set on A375 melanoma cells was 8.54 ± 0.22 µM; in data set [1], 30.9 ± 0.11 µM; in data set [2] (72 h), 13.7 ± 0.34 µM; in data set [2] (Mus musculus, NIH3T3, 72 h), roughly 10 µM.

For the compound `C[C@@H]1NC(c2ccc(C(=O)c3ccccc3)cc2)=Nc2nc3ccccn3c2C1=O` [Compound 6, (4S)-4-methyl-2-(4-benzoylphenyl)-3,4-dihydro-5H-pyrido[1’,2’:1,2]imidazo[4,5-d][1,3]diazepin-5-one], the melting point is 132 to 133 °C. Moreover, in the data set on A375 melanoma cells, the IC50 was greater than 40 µM and the “cytotoxic activity on A375 (in words)” value is “totally inactive”. In addition, in data set [1], the IC50 was greater than 40 µM and the “cytotoxic activity on MDA-MB-435 (in words)” value is “totally inactive”.

As for `O=C(O)C[C@@H]1NC(c2ccc(Br)cc2)=Nc2nc3ccccn3c2C1=O` [Compound 21, (4S)-[2-(4-bromophenyl)-5-oxo-4,5-dihydro-3H-pyrido[1’,2’:1,2]imidazo[4,5-d][1,3]diazepin-4-yl]acetic acid], in the data set with A375 melanoma cells, the IC50 was greater than 40 µM and the “cytotoxic activity on A375 (in words)” value is “inactive”. Moreover, in data set [1], the IC50 is greater than 40 µM and the “cytotoxic activity on MDA-MB-435 (in words)” value was “inactive”.

In turn, `[N-]=[N+]=NCCCC[C@@H]1NC(c2ccccc2)=Nc2nc3ccccn3c2C1=O` [Compound 18, (4S)-4-(4-azidobutyl)-2-phenyl-3,4-dihydro-5H-pyrido[1’,2’:1,2]imidazo[4,5-d][1,3]diazepin-5-one] gave a melting point of 116 to 117 °C. In the data set with A375 melanoma cells, the 50% inhibitory concentration (IC50) is greater than 40 µM and the “cytotoxic activity on A375 (in words)” value is “totally inactive”. Besides, in data set [1], the concentration for half-maximal inhibition (IC50) is greater than 40 µM and the “cytotoxic activity on MDA-MB-435 (in words)” value is “totally inactive”.

Regarding `CC1NC(c2cccc3ccccc23)=Nc2nc3ccccn3c2C1=O` (stereo not shown) [1-naphthyl derivative], in data set [3], the half-inhibitory concentration (IC50) is 1.4 µM.

In turn, `C[C@@H]1NC(c2ccc3ccccc3n2)=Nc2nc3ccccn3c2C1=O` [Compound 11, (4S)-4-methyl-2-quinolin-2-yl-3,4-dihydro-5H-pyrido[1’,2’:1,2]imidazo[4,5-d][1,3]diazepin-5-one] gave a melting point of 170 to 171 °C. The 50% inhibitory concentration (IC50) in the data set with A375 melanoma cells came to 15.6 ± 0.7 µM. Moreover, in data set [1], half-maximal inhibition (IC50) required 30.71 ± 0.19 µM and the “times less active” value is on record as “around 3”. Besides, the IC50 in data set [2] (Mus musculus, NIH3T3, 72 h) was greater than 40 µM.

Regarding `C[C@@H]1NC(c2ccc3oc(=O)ccc3c2)=Nc2nc3ccccn3c2C1=O` [Compound 12, (4S)-4-methyl-2-coumarin-6-yl-3,4-dihydro-5H-pyrido[1’,2’:1,2]imidazo[4,5-d][1,3]diazepin-5-one], the melting point is 132.5 to 133.5 °C. Also, in the data set on A375 melanoma cells, the half-maximal inhibitory concentration (IC50) was greater than 40 µM and the “cytotoxic activity on A375 (in words)” value is reported as “totally abolished the activity”. In data set [1], the 50% inhibitory concentration (IC50) is greater than 40 µM and the “cytotoxic activity on MDA-MB-435 (in words)” value is listed as “totally abolished the activity”.

As to `C#Cc1ccc(C2=Nc3nc4ccccn4c3C(=O)[C@H](C)N2)cc1` [4′, (4S)-4-methyl-2–(4-ethynylphenyl)-3,4-dihydro-5H-pyrido[1’,2’:1,2]imidazo[4,5-d][1,3]diazepin-5-one], the melting point lay within 128 to 129 °C. The same compound came in with an IC50 in the data set with A375 melanoma cells of 10.2 ± 0.55 µM. This compound registered a half-inhibitory concentration (IC50) in data set [1] of 5.14 ± 0.08 µM. Also, the IC50 in data set [2] (Mus musculus, NIH3T3, 72 h) was greater than 40 µM. Moreover, the “molecular volume increase compared to JMV5038” value in data set [4] is on record as 2%.

As to `CC1NC(c2ccc3ccccc3c2)=Nc2nc3ccccn3c2C1=O` (stereo not shown) [2-naphthyl derivative], in data set [3], the IC50 was 1.4 µM.

As for `C#CCCC(=O)NCCCC[C@@H]1NC(c2ccc(Br)cc2)=Nc2nc3ccccn3c2C1=O` [Compound 22, (4S)-N-{4-[2-(4-bromophenyl)-5-oxo-4,5-dihydro-3H-pyrido[1’,2’:1,2]imidazo[4,5-d][1,3]diazepin-4-yl]butyl}pent-4-ynamide], the half-inhibitory concentration (IC50) (with A375 melanoma cells; in data set [1]) was greater than 40 µM each time.

With `CC(C)C[C@@H]1NC(c2ccc(Br)cc2)=Nc2nc3ccccn3c2C1=O` [Compound 15, (4S)-4-isobutyl-2-(4-bromophenyl)-3,4-dihydro-5H-pyrido[1’,2’:1,2]imidazo[4,5-d][1,3]diazepin-5-one], the melting point fell in the range of 72 to 73 °C. In the data set with A375 melanoma cells, the IC50 is greater than 40 µM. The 50% inhibitory concentration (IC50) in data set [1] is greater than 30 µM.
